Assay results from patent publication US8536229B2, “Acetylene derivatives having MGluR 5 antagonistic activity” (Novartis AG, priority 2001, dated 2013).

Experiments:
[1] = test system: stress-induced hyperthermia in mice; assay: stress-induced hyperthermia in mice; type: in vivo; conditions: reduced from 0.92±0.09° C., p<0.001
Description: A. Lecci at al., Psychopharmacol. 101, 255-261]. At doses of about 0.1 to about 30 mg/kg p.o., the agents of the invention reverse the stress-induced hyperthermia.

Structure (SMILES)	melting point [°C]	also measured
CCOC(=O)N1CC[C@@H]2[C@H]1CCC[C@@]2(O)C#Cc1ccc(F)cc1 (racemic) [Example 1i, (±)-(3aRS,4SR,7aRS)-4-(4-Fluoro-phenylethynyl)-4-hydroxy-octahydro-indole-1-carboxylic acid ethyl ester]	115 to 116	–
COC(=O)N1CC[C@@H]2[C@H]1CCC[C@@]2(O)C#Cc1cccc(C)c1 [Example 1, (−)-(3aR,4S,7aR)-4-Hydroxy-4-m-tolylethynyl-octahydro-indole-1-carboxylic acid methyl ester]	–	stress-induced hyperthermia ([1]; 0.1 mg/kg p.o.): 0.56±0.06 °C; stress-induced hyperthermia ([1]; 1 mg/kg p.o.): 0.42±0.06 °C; stress-induced hyperthermia ([1]; 10 mg/kg p.o.): 0.18±0.05 °C
CCOC(=O)N1CC[C@@H]2[C@H]1CCC[C@@]2(O)C#Cc1cccc(C)c1 [Example 1a, (−)-(3aR,4S,7aR)-4-Hydroxy-4-m-tolylethynyl-octahydro-indole-1-carboxylic acid ethyl ester]	118 to 121	–
Cc1cccc(C#C[C@]2(O)CCC[C@@H]3[C@H]2CCN3C(=O)c2ccco2)c1 [Example 1b, (−)-(3aR,4S,7aR)-Furan-2-yl-(4-hydroxy-4-m-tolylethynyl-octahydro-indol-1-yl)-methanone]	195.5 to 196.5	–

Continued, in another order:

melting point [°C]	Structure (SMILES)	also measured
152 to 155	CC(=O)N[C@@H]1CCC[C@@](O)(C#Cc2cccc(C)c2)C1 (racemic) [Example 6m, (±)-(1RS,3SR)-N-(3-hydroxy-3-m-tolylethynyl-cyclohexyl)-acetamide]	–
106 to 107	CCOC(=O)N[C@@H]1CCC[C@@](O)(C#Cc2cccc(C)c2)C1 (racemic) [Example 6o, (±)-(1RS,3SR)-(3-Hydroxy-3-m-tolylethynyl-cyclohexyl)-carbamic acid ethyl ester]	–
121 to 123	CCOC(=O)N[C@@H]1CCC[C@@](O)(C#Cc2cccc(F)c2)C1 (racemic) [Example 6u, (±)-(1RS,3SR)-[3-(3-Fluoro-phenylethynyl)-3-hydroxy-cyclohexyl]-carbamic acid ethyl ester]	–
